Key:
[1] = Time to emesis and survival after oral administration of pesticide with or without emetic (Example 27, Table 1); assay type: in vivo, Macaca fascicularis (Cynomolgus monkeys); conditions: for Animals in which emesis took place / Survival number after 14 days: 2 animals
in vivo = conditions: cynomolgus monkey, po
[2] = in vivo; cited from earlier work
[3] = cited from earlier work

Compound	Time to emesis ([1]; Parathion only, 200 mg/kg) [h]	Animals in which emesis took place ([1]; Parathion only, 200 mg/kg)	Survival number after 14 days ([1]; Parathion only, 200 mg/kg)	LD50 (in vivo) [mg/kg]	Animals in which emesis took place ([1]; Malathion only, 500 mg/kg)	Survival number after 14 days ([1]; Malathion only, 500 mg/kg)	Side effects of known emetic [2]	Stability in air [3]
CCOP(=S)(OCC)Oc1ccc([N+](=O)[O-])cc1 [Parathion, diethyl 4-nitrophenyl phosphorothionate]	1	1	0	~100	–	–	–	–
CCOC(=O)CC(SP(=S)(OC)OC)C(=O)OCC (stereo not drawn) [Malathion, S-[1,2-di(ethoxycarbonyl)ethyl] dimethyl phosphorothiolothionate]	–	–	–	270 to 400	1	0	–	–
CN1CCc2cccc3c2[C@H]1Cc1ccc(O)c(O)c1-3 [apomorphine]	–	–	–	–	–	–	may induce protracted vomiting and shock	unstable in air, oxidising readily

From patent US4269820A, “Safeguarded toxic chemical compositions containing effective emesis-inducing S-triazolo-[1,5-α]pyrimidine derivatives” (priority 1977, dated 1981)
